Data taken from patent US11925621B2, “Medicinal preparation for external use” (Sumitomo Pharma Co., Ltd., priority 2018, dated 2024).

Key:
[1] = Concentration in plasma during continuous intravenous administration in guinea pigs; format: in vivo; details: dose of 30 mg/kg continuous intravenous for 30 minutes
Method: (§1) Evaluation of ECG of guinea pigs was conducted under anesthesia with intra-abdominal administration of a mixed solution of urethane and α-chloralose. Guinea pigs under anesthesia were retained in a supine position, and a right cervical vein was exposed to […] cannula. […] QRS interval and QTc interval are shown as rates of change (%) by similar equations.

SNL model rats = experiment: Analgesic effect in a fifth lumbar nerve ligation (SNL) model, von Frey test; format: in vivo, Wistar rats; details: for extension range of reaction thresholds ± standard error (50% paw withdrawal threshold, after minus before administration): about 10 mg formulation on footpad for 1 hour, evaluated another 1 hour after removal, n=9; for extension range of reaction thresholds compared with the vehicle group: about 10 mg formulation on footpad, versus vehicle (Control example 1)
Method: Test 2. […] A SNL model was prepared by a method of Kim and Chung (Pain 50, 355-363, 1992) with partial modification thereof. Specifically, male 5-week-old Wistar rats were anesthetized with pentobarbital and isoflurane inhalation, and under anesthesia, an unilateral fifth lumber nerve was exposed. Then, the fifth lumber nerve was ligated with a silk surgical suture to obtain a SNL model. Evaluation of the analgesic effect was conducted with the von Frey test. Specifically, an animal was poked with a von Frey hair on a footpad in a hind limb of an animal at the side of operation. Reaction thresholds (50% paw withdrawal thresholds) to mechanical stimulation were calculated with a formula according to a method of Chaplan (Journal of Neuroscience Methods 53, 55-63, 1994). […] Reaction thresholds were measured on one and two days before the evaluation of test compounds, and an average of the measured values was determined as the reaction threshold before administration of test compounds. […] One day after the division into groups, test compounds were administered. […] Administration of a test compound was carried out by application of about 10 mg of each formulation on a medical adhesive film, and attachment of the film to a footpad of a SNL rat at the side of operation under anesthesia with isoflurane inhalation. One hour after the application, the film was removed, and another one hour after, reaction thresholds after administration of the test compound were evaluated. After the evaluation, blood was immediately collected from a cervical vein, and the concentration of the test compound in plasma was measured. The efficacy of the analgesic effect of a test compound is shown as an extension range of reaction thresholds±standard error (g) by the following formula: (Reaction threshold after administration of a test compound)−(Reaction threshold before administration of a test compound).

[2] = system: ECG (electrocardiogram) parameters of guinea pigs; experiment: Safety pharmacology study of the cardiovascular system: ECG parameters under anesthesia; format: in vivo; details: for effect on the cardiovascular system / ECG parameters: guinea pigs under anesthesia, continuous intravenous administration
Method: as §1, with “Test 3. […] Evaluation” for “Evaluation”

[3] = Concentration of the test compound in plasma after evaluation in SNL rats; format: in vivo; details: Wistar, rat, topical about 10 mg formulation, blood collected immediately after evaluation (2 hours after application)
Method: One day after the division into groups, test compounds were administered. […] Administration of a test compound was carried out by application of about 10 mg of each formulation on a medical adhesive film, and attachment of the film to a footpad of a SNL rat at the side of operation under anesthesia with isoflurane inhalation. One hour after the application, the film was removed, and another one hour after, reaction thresholds after administration of the test compound were evaluated. After the evaluation, blood was immediately collected from a cervical vein, and the concentration of the test compound in plasma was measured.

[4] = 30 mg/kg continuous intravenous for 30 minutes, at 30 minutes after administration
[5] = 15 mg/kg continuous intravenous for 30 minutes, at 30 minutes after administration

maximum concentration in plasma [1]	concentration at 2 h [3]	Compound	difference between extension ranges of reaction thresholds of Compound A and lidocaine groups (SNL model rats; Example 1 ointment versus 5% lidocaine ointment)	extension range of reaction thresholds ± standard error (50% paw withdrawal threshold, after minus before administration) (SNL model rats)	extension range of reaction thresholds compared with the vehicle group (SNL model rats)	rates of change of each ECG parameter compared with the vehicle group ([2]; 30 mg/kg continuous intravenous for 30 minutes)	PR interval rate of change (prolonged) [2, 4]	QRS interval rate of change (prolonged) [2, 4]	QTc interval rate of change (prolonged) [2, 4]	plasma concentration without effect on the cardiovascular system relative to that at which the analgesic effect appeared ([2]; guinea pig maximum plasma concentration at 30 mg/kg versus SNL rat plasma concentration)	effect on the cardiovascular system / ECG parameters [2]	PR interval rate of change (prolonged) [2, 5]	QRS interval rate of change (prolonged) [2, 5]
16.9 µg/mL	25.2 ng/mL	CCn1c(CN[C@@H](C)C(N)=O)nc2ccc(Oc3ccc(C)cc3)cc21 [Compound A, N^2-{[1-ethyl-6-(4-methylphenoxy)-1H-benzimidazol-2-yl]methyl}-L-alaninamide]	no statistically significant difference	2.2 ± 0.56 g	statistically significantly increased	no statistically significant difference	22.3%	10.3%	9.0%	about 670 times	not observed until the dose rose to 30 mg/kg	–	–
–	–	CCN(CC)CC(=O)Nc1c(C)cccc1C [lidocaine, reference compound]	–	4.1 ± 0.62 g	statistically significantly increased	–	–	–	–	–	observed at a dose of 15 mg/kg	35.1%	44.5%
